In test [1] the test system is Monkeypox virus. Put plainly: Antiviral activity against Monkeypox virus Zaire '79 infected in cynomolgus monkey assessed as inhibition of virus induced skin lesions at 300 mg/kg/day, po administered 72 hrs post infection measured after 14 days. Type of test: functional, organism-based.
The subject of test [2] is Variola virus. Briefly: Antiviral activity against 1X10'8 PFU Variola virus Harper infected in cynomolgus monkey assessed as survival of animal at 300 mg/kg/day, po administered immediately post infection followed by 5 ml/kg of 30% suspension of hydrated homogenized monkey biscuit measured up to 28 days. Type of test: functional, organism-based.
The test system of test [3] is Variola virus. Briefly: Antiviral activity against 1X10'8 PFU Variola virus Harper infected in cynomolgus monkey assessed as log decrease in blood viral load at 300 mg/kg/day, po administered immediately post infection followed by 5 ml/kg of 30% suspension of hydrated homogenized monkey biscuit measured between day 5 to 8. It is filed as functional.
The test system of test [4] is Variola virus. Briefly: Antiviral activity against 1X10'8 PFU Variola virus Harper infected in cynomolgus monkey assessed as log decrease in blood viral load at 300 mg/kg/day, po administered 1 day post infection followed by 5 ml/kg of 30% suspension of hydrated homogenized monkey biscuit measured between day 5 to 8. It is filed as functional.
In test [5] the test system is Variola virus. Put plainly: Antiviral activity against 1X10'8 PFU Variola virus Harper infected in cynomolgus monkey assessed as inhibition of virus-mediated lesion formation at 300 mg/kg/day, po administered 1 day post infection followed by 5 ml/kg of 30% suspension of hydrated homogenized monkey biscuit measured between day 5 to 8. It is filed as functional, organism-based.

For test [6], the system named is Variola virus. Put plainly: Antiviral activity against 1X10'8 PFU Variola virus Harper infected in cynomolgus monkey assessed as percent hematocrit level in animal at 300 mg/kg/day, po administered immediately after infection followed by 5 ml/kg of 30% suspension of hydrated homogenized monkey biscuit measured 11 days post infection. Type of test: functional.
Test [7] concerns Variola virus. Put plainly: Antiviral activity against 1X10'8 PFU Variola virus Harper infected in cynomolgus monkey assessed as alanine amino transferase level in animal at 300 mg/kg/day, po administered immediately after infection followed by 5 ml/kg of 30% suspension of hydrated homogenized monkey biscuit measured 11 days post infection. It is filed as functional.
Test [8] deals with Variola virus. Put plainly: Antiviral activity against 1X10'8 PFU Variola virus Harper infected in cynomolgus monkey assessed as aspartate amino transferase level in animal at 300 mg/kg/day, po administered immediately after infection followed by 5 ml/kg of 30% suspension of hydrated homogenized monkey biscuit measured 11 days post infection. Type of test: functional.
Test [9] relates to Variola virus. Put plainly: Antiviral activity against 1X10'8 PFU Variola virus Harper infected in cynomolgus monkey assessed as blood urea nitrogen level in animal at 300 mg/kg/day, po administered immediately after infection followed by 5 ml/kg of 30% suspension of hydrated homogenized monkey biscuit measured 11 days post infection. Type of test: functional.
The test system of test [10] is Variola virus. Briefly: Antiviral activity against 1X10'8 PFU Variola virus Harper infected in cynomolgus monkey assessed as creatinine level in animal at 300 mg/kg/day, po administered immediately after infection followed by 5 ml/kg of 30% suspension of hydrated homogenized monkey biscuit measured 11 days post infection. Type of test: functional.
The test system of test [11] is Variola virus. Briefly: Antiviral activity against 1X10'8 PFU Variola virus Harper infected in cynomolgus monkey assessed as platelet count in animal at 300 mg/kg/day, po administered 1 day post infection followed by 5 ml/kg of 30% suspension of hydrated homogenized monkey biscuit measured 11 days post infection. It is filed as functional.
Test [12] concerns Variola virus. Put plainly: Antiviral activity against 1X10'8 PFU Variola virus Harper infected in cynomolgus monkey assessed as white blood cell count in animal at 300 mg/kg/day, po administered 1 day post infection followed by 5 ml/kg of 30% suspension of hydrated homogenized monkey biscuit measured 11 days post infection. It is filed as functional.
For test [13], the system named is Variola virus. Put plainly: Antiviral activity against 1X10'8 PFU Variola virus Harper infected in cynomolgus monkey assessed as temperature change in animal at 300 mg/kg/day, po administered 1 day post infection followed by 5 ml/kg of 30% suspension of hydrated homogenized monkey biscuit measured 11 days post infection. Type of test: functional.
Test [14] deals with Variola virus. Briefly: Antiviral activity against 1X10'8 PFU Variola virus Harper infected in cynomolgus monkey assessed as […] level in animal at 300 mg/kg/day, po administered 1 day post infection followed by 5 ml/kg of 30% suspension of hydrated homogenized monkey biscuit measured 11 days post infection. It is filed as functional.
In test [15] the test system is Variola virus. Put plainly: Antiviral activity against 1X10'8 PFU Variola virus Harper infected in cynomolgus monkey assessed as aspartate amino transferase level in animal at 300 mg/kg/day, po administered 1 day post infection followed by 5 ml/kg of 30% suspension of hydrated homogenized monkey biscuit measured 11 days post infection. Type of test: functional.
The subject of test [16] is Variola virus. Briefly: Antiviral activity against 1X10'8 PFU Variola virus Harper infected in cynomolgus monkey assessed as blood urea nitrogen level in animal at 300 mg/kg/day, po administered 1 day post infection followed by 5 ml/kg of 30% suspension of hydrated homogenized monkey biscuit measured 11 days post infection. Type of test: functional.
Test [17] concerns Variola virus. Briefly: Antiviral activity against 1X10'8 PFU Variola virus Harper infected in cynomolgus monkey assessed as creatinine level in animal at 300 mg/kg/day, po administered 1 day post infection followed by 5 ml/kg of 30% suspension of hydrated homogenized monkey biscuit measured 11 days post infection. Type of test: functional.
The subject of test [18] is Variola virus. Briefly: Antiviral activity against 1X10'8 PFU Variola virus Harper infected in cynomolgus monkey assessed as white blood cell count in animal at 300 mg/kg/day, po administered 3 days post infection followed by 5 ml/kg of 30% suspension of hydrated homogenized monkey biscuit measured 9 days post infection. It is filed as functional.
The test system of test [19] is Cynomolgus monkey. Briefly: Immunostimulatory activity in cynomolgus monkey infected with 1X10'8 PFU Variola virus Harper assessed as level of IgM at 300 mg/kg/day, po followed by 5 ml/kg of 30% suspension of hydrated homogenized monkey biscuit measured on day 7 by ELISA. It is filed as functional, organism-based. The note with it: Macaca fascicularis. On the technique in general: ELISA stands for enzyme-linked immunosorbent assay.

The subject of test [20] is Cynomolgus monkey. Put plainly: Immunostimulatory activity in cynomolgus monkey infected with 1X10'8 PFU Variola virus Harper assessed as level of IgG at 300 mg/kg/day, po followed by 5 ml/kg of 30% suspension of hydrated homogenized monkey biscuit measured on day 7 by ELISA. It is filed as functional, organism-based. The note with it: Macaca fascicularis.
Test [21] relates to Monkeypox virus. Briefly: Antiviral activity against Monkeypox virus Zaire '79 infected in cynomolgus monkey assessed as survival of monkey at 300 mg/kg/day, po administered 24 hrs post infection followed by 5 ml/kg of 30% suspension of hydrated homogenized monkey biscuit measured after 14 days. It is filed as functional, organism-based.
Test [22] deals with Monkeypox virus. Briefly: Antiviral activity against Monkeypox virus Zaire '79 infected in cynomolgus monkey assessed as survival of monkey at 300 mg/kg/day, po administered 72 hrs post infection followed by 5 ml/kg of 30% suspension of hydrated homogenized monkey biscuit measured after 14 days. Type of test: functional, organism-based.
The test system of test [23] is Monkeypox virus. Briefly: Antiviral activity against Monkeypox virus Zaire '79 infected in cynomolgus monkey assessed as inhibition of virus induced skin lesions at 300 mg/kg/day, po administered 24 hrs post infection measured after 14 days. It is filed as functional, organism-based.

Activity calls are given as the source filed them. No cut-off for these calls is given here.

On to `O=C(NN1C(=O)[C@@H]2[C@@H]3C=C[C@@H]([C@H]4C[C@@H]34)[C@@H]2C1=O)c1ccc(C(F)(F)F)cc1` [TECOVIRIMAT], for which the result with Monkeypox virus [1], in the test on Variola virus [2], in the test with Cynomolgus monkey [19], in the test on Cynomolgus monkey [20], in the test with Monkeypox virus [21] and in the test on Monkeypox virus [22] was Active. Besides, the result with Monkeypox virus [23] was Active. The FC in the test with Variola virus [3] and with Variola virus [4] was 3 in each case. Besides, the inhibition result in the test with Variola virus [5] is “Active”. Moreover, the Activity in the test on Variola virus [6] worked out at 44.3%; in the test with Variola virus [7], 49.7 U/L; in the test on Variola virus [8], 55 U/L; with Variola virus [9], 19 mg/dL; in the test with Variola virus [10], 0.73 mg/dL; in the test with Variola virus [11], 341 ×10³ /uL. Also, the Activity was found to be 7.5 ×10³ /uL with Variola virus [12]; 37.3 °C with Variola virus [13]; 141 U/L in the test on Variola virus [14]; 58 U/L with Variola virus [15]; 18.7 mg/dL with Variola virus [16]; 0.7 mg/dL in the test on Variola virus [17]. Also, the Activity in the test with Variola virus [18] worked out at 12.3 ×10³ /uL.

The values are drawn from ChEMBL document CHEMBL1649471, “Nonhuman primates are protected from smallpox virus or monkeypox virus challenges by the antiviral drug ST-246” (2009).
